{
  "source": "patent US9565857B2",
  "about": "“Antimicrobial solutions” (Board of Regents, The University of Texas System, priority 2010, dated 2017)",
  "key": {"Candida glabrata": {"test_system": "Candida glabrata", "assay": "modified Kuhn's biofilm model on silicone discs, lock solutions", "type": "cell-based", "details": "quantitative culture of biofilm discs after 2 hrs in solution at 37° C.", "protocol": "(§1) Biofilm was grown on sterile silicone discs following a modified Kuhn's method. Briefly, silicone discs were placed into a 24 well tissue culture plate and incubated overnight at 37° C. The plasma was then removed and replaced with 1 mL of 5.5×10^5 CFU/mL inoculum of various organisms. The plates were then incubated for an additional 24 hrs at 37° C. Inoculum was then removed and discs were washed shaking for 30 minutes in 0.9% sterile saline. After washing the discs were placed in 1 mL of various antimicrobial solutions and incubated at 37° C. for 2 hrs. The discs were then removed and placed in 5 mL of 0.9% sterile saline and sonicated to disrupt any remaining biofilm. The resulting solution was then quantitatively cultured by making serial dilutions in 0.9% sterile saline and plating on agar plates, TSA+5% sheep blood for all bacterial organisms and Sabouraud Dextrose Agar for yeasts. A total of 3-9 discs were used for both organisms and respective labs solutions (see Tables 4-6).\n(§2) Statistical methods: Wilcoxon rank sum tests were used for comparisons. All the analyses were performed using SAS version 9.1 (SAS Institute Inc., Cary, N.C.)."}, "[1]": {"test_system": "MDR-Pseudomonas aeruginosa (PS 4689)", "assay": "modified Kuhn's biofilm model on silicone discs, lock solutions", "type": "cell-based", "details": "quantitative culture of biofilm discs after 2 hrs in solution at 37° C.", "protocol": "as §1, §2"}, "[2]": {"test_system": "methicillin resistant Staphylococcus aureus (MRSA 4798)", "assay": "modified Kuhn's biofilm model on silicone discs, lock solutions", "type": "cell-based", "details": "quantitative culture of biofilm discs after 2 hrs in solution at 37° C.", "protocol": "as §1, §2"}, "MRSA": {"test_system": "MRSA", "assay": "modified quantitative germicidal spray / quantitative carrier test, Example 1", "type": "cell-based, Staphylococcus aureus", "details": "criterion: complete kill on 9 of 10 carriers, positive carrier at least 99% reduction; one minute", "method": "Sterile 50 mL centrifuge tubes, pre-filled with 20 mL of desired neutralizer.\nUse 3″×1″ sterile glass containers. Place each carrier into a sterile Petri plastic dish.\nInoculate each carrier with 10 μL of bacterial or fungal suspension. If a carrier has a frosted end, inoculate the non-frosted end.\nUsing a sterile inoculating needle, spread the inoculum into an approximate 1 cm×1 cm square.\nDry the carriers in a 35° C. incubator for 30 min (lids cracked) or 40 min (lids closed).\nSpray each carrier as specified by the test product. Ensure the inoculated area is thoroughly covered. Because of the time it takes to transfer the carrier into the neutralizer, a 30-second (or longer) interval time is recommended.\nAfter the specified exposure time, transfer each carrier to a pre-filled centrifuge tube using forceps. Be sure to pick up the carrier by the non-inoculated end and place the inoculated end into the neutralizer.\nImmediately close the cap and invert the tube several times (10 should be sufficient) so the neutralizer coats the entire carrier.\nFrom this point on, follow the enumeration procedure as specified in the Quantitative Carrier Test SOP. […]\nThe aim of these sets of experiments is to compare the activity of these various solutions on a 10-set slid carriers of MRSA using standard EPA quantitate carrier test in 25-50% calf serum."}},
  "data": [
    {"smiles": "OCC(O)CO", "note": "[50% Glycerol alone, Glycerol]", "values": [
      {"measurement": "Mean", "setting": "Candida glabrata", "value": "6.2 × 10^3"},
      {"measurement": "Median (range)", "setting": "Candida glabrata", "value": "1.1 × 10^3"},
      {"measurement": "Mean", "setting": "[1]", "value": "1.0 × 10^6"},
      {"measurement": "Median (range)", "setting": "[1]", "value": "1.0 × 10^6"},
      {"measurement": "Mean", "setting": "[2]", "value": "1.0 × 10^7"},
      {"measurement": "Median (range)", "setting": "[2]", "value": "1.0 × 10^6"}
    ]},
    {"smiles": "N=C(NCCCCCCNC(=N)NC(=N)Nc1ccc(Cl)cc1)NC(=N)Nc1ccc(Cl)cc1", "note": "[0.06% CHG alone, 1,1′-hexamethylene-bis-[5-(4-chlorophenyl)-biguanide]]", "values": [
      {"measurement": "test of being highly effective against MRSA (passed/failed)", "setting": "MRSA", "value": "failed the test"}
    ]}
  ]
}
